Measurements as given in PMC11784639, “Archaeal Signalling Networks—New Insights Into the Structure and Function of Histidine Kinases and Response Regulators of the Methanogenic Archaeon Methanosarcina acetivorans” (Environmental Microbiology, 2025).

Experiments:
MA4377 (full-length) = target: T1, MA4377 (full-length) (Methanosarcina acetivorans, UniProt Q8THY1); experiment: fluorescence titration with TNP-ATP; type: binding; conditions: fluorescent ATP analogue; kinase buffer pH 8, 5 mM MgCl2; 541 nm emission
T1 construct: gene MA_4377
T1 sequence (Q8THY1 1-1028): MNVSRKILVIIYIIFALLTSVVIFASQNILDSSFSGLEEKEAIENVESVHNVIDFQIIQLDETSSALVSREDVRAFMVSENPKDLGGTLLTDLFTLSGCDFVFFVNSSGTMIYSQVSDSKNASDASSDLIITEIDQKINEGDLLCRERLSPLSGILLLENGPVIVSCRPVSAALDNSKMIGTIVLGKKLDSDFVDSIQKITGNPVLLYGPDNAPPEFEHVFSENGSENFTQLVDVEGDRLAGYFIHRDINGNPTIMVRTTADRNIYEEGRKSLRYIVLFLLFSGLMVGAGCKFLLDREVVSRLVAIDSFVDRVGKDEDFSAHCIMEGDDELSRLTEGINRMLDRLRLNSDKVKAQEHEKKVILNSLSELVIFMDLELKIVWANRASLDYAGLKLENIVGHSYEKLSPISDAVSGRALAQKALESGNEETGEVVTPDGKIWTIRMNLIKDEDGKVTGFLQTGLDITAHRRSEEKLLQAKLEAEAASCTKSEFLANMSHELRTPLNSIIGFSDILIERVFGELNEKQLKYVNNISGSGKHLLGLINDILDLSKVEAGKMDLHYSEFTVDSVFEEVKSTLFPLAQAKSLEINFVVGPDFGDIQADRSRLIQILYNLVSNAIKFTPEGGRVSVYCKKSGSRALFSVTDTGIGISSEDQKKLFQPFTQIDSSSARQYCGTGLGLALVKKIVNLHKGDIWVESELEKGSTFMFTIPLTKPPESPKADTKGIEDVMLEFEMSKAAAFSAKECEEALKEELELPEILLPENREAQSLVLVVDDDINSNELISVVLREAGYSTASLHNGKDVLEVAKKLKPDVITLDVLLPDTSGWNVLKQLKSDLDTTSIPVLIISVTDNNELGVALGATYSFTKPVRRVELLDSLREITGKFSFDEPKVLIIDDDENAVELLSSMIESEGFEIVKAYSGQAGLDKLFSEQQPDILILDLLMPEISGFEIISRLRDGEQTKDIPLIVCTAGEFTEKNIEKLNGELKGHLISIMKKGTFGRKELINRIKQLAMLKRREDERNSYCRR

MA2082 = target: T2, MA2082 (Methanosarcina acetivorans, UniProt Q8TP40); experiment: fluorescence titration with TNP-ATP; type: binding; conditions: fluorescent ATP analogue; kinase buffer pH 8, 5 mM MgCl2; 541 nm emission
T2 construct: gene MA_2082
T2 sequence (Q8TP40 1-698): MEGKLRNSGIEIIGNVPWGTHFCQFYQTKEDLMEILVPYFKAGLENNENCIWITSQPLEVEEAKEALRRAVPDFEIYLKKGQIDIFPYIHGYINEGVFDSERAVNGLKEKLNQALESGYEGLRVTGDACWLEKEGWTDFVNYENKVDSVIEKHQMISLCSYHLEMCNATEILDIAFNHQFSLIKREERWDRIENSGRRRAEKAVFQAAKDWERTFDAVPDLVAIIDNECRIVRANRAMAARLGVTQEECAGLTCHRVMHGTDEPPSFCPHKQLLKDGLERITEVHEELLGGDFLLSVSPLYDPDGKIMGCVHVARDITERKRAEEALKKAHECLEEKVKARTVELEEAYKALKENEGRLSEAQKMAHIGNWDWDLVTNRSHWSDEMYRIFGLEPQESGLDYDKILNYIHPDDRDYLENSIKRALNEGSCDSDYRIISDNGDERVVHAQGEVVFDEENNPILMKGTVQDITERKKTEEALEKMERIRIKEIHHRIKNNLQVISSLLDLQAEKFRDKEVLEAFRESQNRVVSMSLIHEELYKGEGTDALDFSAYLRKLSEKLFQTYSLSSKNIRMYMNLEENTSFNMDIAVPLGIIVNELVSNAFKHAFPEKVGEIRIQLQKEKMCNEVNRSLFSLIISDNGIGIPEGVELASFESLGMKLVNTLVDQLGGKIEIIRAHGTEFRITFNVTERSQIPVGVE

RdmS (MA0863) = target: T3, RdmS (MA0863) (Methanosarcina acetivorans, UniProt Q8TSD5); experiment: fluorescence titration with TNP-ATP; type: binding; conditions: fluorescent ATP analogue; kinase buffer pH 8, 5 mM MgCl2; 541 nm emission
T3 construct: gene MA_0863
T3 sequence (Q8TSD5 1-749): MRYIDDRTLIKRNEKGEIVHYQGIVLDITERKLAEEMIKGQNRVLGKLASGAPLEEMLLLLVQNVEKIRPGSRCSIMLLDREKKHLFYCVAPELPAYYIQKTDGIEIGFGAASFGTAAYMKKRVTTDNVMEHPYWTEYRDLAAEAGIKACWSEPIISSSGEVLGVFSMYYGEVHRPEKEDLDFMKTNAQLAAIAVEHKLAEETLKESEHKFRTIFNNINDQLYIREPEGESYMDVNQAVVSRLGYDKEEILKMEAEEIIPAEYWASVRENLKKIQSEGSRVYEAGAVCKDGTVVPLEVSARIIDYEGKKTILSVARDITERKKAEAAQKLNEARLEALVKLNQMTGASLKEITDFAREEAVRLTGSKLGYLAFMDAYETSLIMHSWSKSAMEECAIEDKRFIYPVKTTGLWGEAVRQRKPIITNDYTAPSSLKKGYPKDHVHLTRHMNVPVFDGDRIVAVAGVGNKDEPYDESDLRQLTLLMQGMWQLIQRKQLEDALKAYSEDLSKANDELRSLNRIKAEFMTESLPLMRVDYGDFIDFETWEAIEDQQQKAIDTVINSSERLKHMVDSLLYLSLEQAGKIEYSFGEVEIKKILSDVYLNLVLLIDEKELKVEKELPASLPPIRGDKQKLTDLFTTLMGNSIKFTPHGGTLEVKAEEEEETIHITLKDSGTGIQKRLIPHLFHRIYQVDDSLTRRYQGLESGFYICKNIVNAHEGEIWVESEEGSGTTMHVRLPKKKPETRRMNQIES

PKR1R2 = target: T4, PKR1R2 (Methanosarcina acetivorans, UniProt Q8THY1); experiment: fluorescence titration with TNP-ATP; type: binding; conditions: fluorescent ATP analogue; kinase buffer pH 8, 5 mM MgCl2; 541 nm emission
T4 construct: gene MA_4377; cytosolic truncation PAS-HK-R1-R2 without CHASE4 and HAMP (membrane) part
T4 sequence (Q8THY1 351-1028 limits assumed): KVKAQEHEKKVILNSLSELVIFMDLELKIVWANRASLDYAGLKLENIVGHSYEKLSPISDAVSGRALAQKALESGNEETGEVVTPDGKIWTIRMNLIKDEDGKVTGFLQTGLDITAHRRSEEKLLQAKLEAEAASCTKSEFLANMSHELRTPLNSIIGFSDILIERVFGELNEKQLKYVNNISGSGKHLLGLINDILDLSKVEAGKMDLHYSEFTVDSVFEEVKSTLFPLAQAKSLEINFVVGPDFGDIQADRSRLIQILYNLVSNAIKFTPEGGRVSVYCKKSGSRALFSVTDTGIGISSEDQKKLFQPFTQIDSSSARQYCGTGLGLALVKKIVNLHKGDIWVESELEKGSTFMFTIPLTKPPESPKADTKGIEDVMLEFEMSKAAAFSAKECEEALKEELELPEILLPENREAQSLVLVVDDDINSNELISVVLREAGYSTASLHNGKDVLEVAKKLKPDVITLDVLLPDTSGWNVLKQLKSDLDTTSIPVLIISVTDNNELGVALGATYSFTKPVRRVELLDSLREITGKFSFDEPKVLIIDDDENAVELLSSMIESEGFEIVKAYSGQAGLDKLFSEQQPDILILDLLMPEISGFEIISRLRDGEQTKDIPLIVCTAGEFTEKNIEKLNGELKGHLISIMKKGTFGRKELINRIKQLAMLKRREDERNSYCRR

MA2013 = target: T5, MA2013 (Methanosarcina acetivorans, UniProt Q8TPA1); experiment: fluorescence titration with TNP-ATP; type: binding; conditions: fluorescent ATP analogue; kinase buffer pH 8, 5 mM MgCl2; 541 nm emission
T5 construct: gene MA_2013
T5 sequence (Q8TPA1 1-1000): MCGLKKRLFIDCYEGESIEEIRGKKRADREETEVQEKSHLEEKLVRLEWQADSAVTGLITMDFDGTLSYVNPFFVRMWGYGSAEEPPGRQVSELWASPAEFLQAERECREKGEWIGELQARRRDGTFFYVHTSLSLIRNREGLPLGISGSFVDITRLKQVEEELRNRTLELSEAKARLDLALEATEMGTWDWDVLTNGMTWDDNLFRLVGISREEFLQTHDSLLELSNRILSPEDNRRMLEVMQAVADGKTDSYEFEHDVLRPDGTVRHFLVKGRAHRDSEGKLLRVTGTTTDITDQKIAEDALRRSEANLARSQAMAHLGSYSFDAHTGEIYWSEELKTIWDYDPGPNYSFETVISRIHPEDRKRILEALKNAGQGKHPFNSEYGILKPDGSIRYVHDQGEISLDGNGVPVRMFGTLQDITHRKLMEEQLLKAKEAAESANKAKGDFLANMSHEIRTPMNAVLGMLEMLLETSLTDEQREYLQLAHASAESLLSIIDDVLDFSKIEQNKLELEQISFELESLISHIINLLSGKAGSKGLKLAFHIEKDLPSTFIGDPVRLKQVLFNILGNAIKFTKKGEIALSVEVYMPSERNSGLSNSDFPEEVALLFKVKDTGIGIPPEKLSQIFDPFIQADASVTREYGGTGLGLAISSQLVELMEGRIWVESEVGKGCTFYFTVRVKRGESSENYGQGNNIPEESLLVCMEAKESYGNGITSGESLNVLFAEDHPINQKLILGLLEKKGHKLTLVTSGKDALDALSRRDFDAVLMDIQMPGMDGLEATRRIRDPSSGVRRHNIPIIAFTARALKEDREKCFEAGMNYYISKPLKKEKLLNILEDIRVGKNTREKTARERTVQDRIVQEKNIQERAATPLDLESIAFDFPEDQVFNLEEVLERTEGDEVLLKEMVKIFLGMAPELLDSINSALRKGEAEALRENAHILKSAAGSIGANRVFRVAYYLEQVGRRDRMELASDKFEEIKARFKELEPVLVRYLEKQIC

PK = target: T6, PK (Methanosarcina acetivorans, UniProt Q8THY1); experiment: autophosphorylation, SDS-PAGE autoradiography; type: biochemical; conditions: labelled compound ([γ-32P]ATP 3.3 μM) with 200 μM ATP; 10 μM kinase; kinase buffer pH 8, 5 mM MgCl2
T6 construct: gene MA_4377; PAS and HK domains only (no CHASE4, HAMP, R1, R2)
T6 sequence (Q8THY1 351-765 limits assumed): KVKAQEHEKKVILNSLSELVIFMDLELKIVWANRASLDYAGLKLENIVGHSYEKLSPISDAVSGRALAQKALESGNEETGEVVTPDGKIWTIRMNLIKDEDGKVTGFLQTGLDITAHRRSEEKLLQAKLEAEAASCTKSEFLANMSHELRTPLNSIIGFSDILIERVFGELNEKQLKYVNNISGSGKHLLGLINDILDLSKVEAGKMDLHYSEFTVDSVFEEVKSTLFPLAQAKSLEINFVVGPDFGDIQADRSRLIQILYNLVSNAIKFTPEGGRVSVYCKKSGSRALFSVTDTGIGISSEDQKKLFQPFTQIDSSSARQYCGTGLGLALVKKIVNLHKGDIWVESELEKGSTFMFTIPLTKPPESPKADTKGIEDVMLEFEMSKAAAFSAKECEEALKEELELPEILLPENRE

| Compound | Kd (MA4377 (full-length)) [µM] | Kd (MA2082) [µM] | Kd (RdmS (MA0863)) [µM] | Kd (PKR1R2) [µM] | Kd (MA2013) [µM] | autophosphorylation, SDS-PAGE autoradiography (PK) |
| --- | --- | --- | --- | --- | --- | --- |
| 2′‐(3′)‐O‐(2,4,6‐trinitrophenyl)‐adenosin 5′‐triphosphat [TNP-ATP] | ~11 | 29.6 ± 4.4 | 17 ± 5.7 | ~11 | 28.2 ± 1.3 | – |
| Nc1ncnc2c1ncn2[C@@H]1O[C@H](COP(=O)(O)OP(=O)(O)OP(=O)(O)O)[C@@H](O)[C@H]1O [ATP] | – | – | – | – | – | indeed displayed time‐dependent autokinase activity |
